We go through seven cell lines from the supplement of paper PMC10307832.

Holding throughout (assay): relative viability (nuclei count vs DMSO), 5 days (fraction); higher = more cells survive
Compound in experiment [1]: O=C(CCCCCCNC(=O)c1cnc(N(c2ccccc2)c2ccccc2)nc1)NO [Ricolinostat] + Nc1ncn([C@H]2C[C@H](O)[C@@H](CO)O2)c(=O)n1 [Decitabine] (partner 2 µM)
A digest of the protocol:
(§1)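 Lung cancer cell lines were pin-tool dosed in 1536-well plates on the day after seeding, with either a lone drug or a fixed anchor-drug dose plus five library-drug doses (not always all listed) in √10 steps. Nuclei were counted on 4× images after 5 days. Relative viability is the ratio of treated-well to vehicle-well nuclei counts, with each value a median of duplicate plates.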

Compound in experiment [2]: C1=CC=C(C(=C1)C2=CC=C(C=C2)C3=CSC4=C3C(=C(C(=O)N4)C#N)O)O + O=C(c1cc(Cc2n[nH]c(=O)c3ccccc23)ccc1F)N1CCN(C(=O)C2CC2)CC1 [Olaparib] (partner 8 µM)
The method, boiled down:
as §1

Compound in the experiment “TGX 221 + Foretinib”: CC1=CN2C(=O)C=C(N=C2C(=C1)C(C)NC3=CC=CC=C3)N4CCOCC4 [TGX 221] + COc1cc2c(Oc3ccc(NC(=O)C4(C(=O)Nc5ccc(F)cc5)CC4)cc3F)ccnc2cc1OCCCN1CCOCC1 [Foretinib] (partner 0.25 µM)
A digest of the protocol: as §1

Compound in the experiment “TGX 221 + Palbociclib”: CC1=CN2C(=O)C=C(N=C2C(=C1)C(C)NC3=CC=CC=C3)N4CCOCC4 [TGX 221] + CC(=O)c1c(C)c2cnc(Nc3ccc(N4CCNCC4)cn3)nc2n(C2CCCC2)c1=O [Palbociclib] (partner 0.5 µM)
The method, boiled down:
as §1

As for NCI-H460, the relative viability came out at 0.496 in experiment [1] (first compound 0.08 µM); 0.429 in experiment [1] (first compound 0.253 µM); 0.519 in experiment [1] (first compound 0.8 µM); 0.427 in experiment [1] (first compound 2.53 µM); 0.341 in experiment [2] (first compound 0.08 µM); 0.406 in experiment [2] (first compound 0.253 µM). The relative viability in experiment [2] (first compound 0.8 µM) came to 0.331; in experiment [2] (first compound 2.53 µM), 0.452; in experiment [2] (first compound 8 µM) it was 0.434; with TGX 221 + Foretinib (first compound 0.08 µM) it was 1.02; with TGX 221 + Foretinib (first compound 0.253 µM) it was 0.968; with TGX 221 + Foretinib (first compound 0.8 µM), 1.14. Further, the relative viability with TGX 221 + Foretinib (first compound 2.53 µM) is 0.957; with TGX 221 + Foretinib (first compound 8 µM), 0.83; with TGX 221 + Palbociclib (first compound 0.08 µM) it was 0.101; with TGX 221 + Palbociclib (first compound 0.253 µM), 0.179; with TGX 221 + Palbociclib (first compound 0.8 µM) it was 0.159; with TGX 221 + Palbociclib (first compound 2.53 µM), 0.228. In addition, the relative viability with TGX 221 + Palbociclib (first compound 8 µM) is 0.168.

NCI-H23: the relative viability in experiment [1] (first compound 0.08 µM) was determined as 0.325; in experiment [1] (first compound 0.253 µM) it was 0.316; in experiment [1] (first compound 0.8 µM) it was 0.319; in experiment [1] (first compound 2.53 µM), 0.323; in experiment [2] (first compound 0.08 µM), 0.282; in experiment [2] (first compound 0.253 µM), 0.298. Also, the relative viability was determined as 0.37 in experiment [2] (first compound 0.8 µM); 0.336 in experiment [2] (first compound 2.53 µM); 0.273 in experiment [2] (first compound 8 µM); 0.84 with TGX 221 + Foretinib (first compound 0.08 µM); 0.861 with TGX 221 + Foretinib (first compound 0.253 µM); 1.03 with TGX 221 + Foretinib (first compound 0.8 µM). In addition, the relative viability stood at 0.87 with TGX 221 + Foretinib (first compound 2.53 µM); 0.65 in the experiment with TGX 221 + Foretinib (first compound 8 µM); 0.479 with TGX 221 + Palbociclib (first compound 0.08 µM); 0.441 with TGX 221 + Palbociclib (first compound 0.253 µM); 0.424 with TGX 221 + Palbociclib (first compound 0.8 µM); 0.479 with TGX 221 + Palbociclib (first compound 2.53 µM). Further, the relative viability with TGX 221 + Palbociclib (first compound 8 µM) was 0.389.

NCI-H1437: the relative viability in experiment [1] (first compound 0.08 µM) stood at 0.448; in experiment [1] (first compound 0.253 µM) it was 0.545; in experiment [1] (first compound 0.8 µM), 0.543; in experiment [1] (first compound 2.53 µM), 0.467; in experiment [2] (first compound 0.08 µM) it was 0.616; in experiment [2] (first compound 0.253 µM), 0.74. Besides, the relative viability in experiment [2] (first compound 0.8 µM) was 0.668; in experiment [2] (first compound 2.53 µM) it was 0.641; in experiment [2] (first compound 8 µM), 0.606; with TGX 221 + Foretinib (first compound 0.08 µM), 1.26; in the experiment with TGX 221 + Foretinib (first compound 0.253 µM), 1.21; with TGX 221 + Foretinib (first compound 0.8 µM) it was 1.25. Moreover, the relative viability came out at 1.19 with TGX 221 + Foretinib (first compound 2.53 µM); 1.06 with TGX 221 + Foretinib (first compound 8 µM); 0.294 with TGX 221 + Palbociclib (first compound 0.08 µM); 0.317 in the experiment with TGX 221 + Palbociclib (first compound 0.253 µM); 0.324 with TGX 221 + Palbociclib (first compound 0.8 µM); 0.276 in the experiment with TGX 221 + Palbociclib (first compound 2.53 µM). Further, in the experiment with TGX 221 + Palbociclib (first compound 8 µM), the relative viability was determined as 0.295.

Regarding EKVX, the relative viability in experiment [1] (first compound 0.08 µM) was 0.31; in experiment [1] (first compound 0.253 µM) it was 0.322; in experiment [1] (first compound 0.8 µM) it was 0.299; in experiment [1] (first compound 2.53 µM), 0.346; in experiment [2] (first compound 0.08 µM), 0.98; in experiment [2] (first compound 0.253 µM), 0.929. The relative viability in experiment [2] (first compound 0.8 µM) was determined as 0.778; in experiment [2] (first compound 2.53 µM), 0.856; in experiment [2] (first compound 8 µM), 0.716; with TGX 221 + Foretinib (first compound 0.08 µM) it was 0.691; in the experiment with TGX 221 + Foretinib (first compound 0.253 µM), 0.914; in the experiment with TGX 221 + Foretinib (first compound 0.8 µM), 0.763. Further, the relative viability with TGX 221 + Foretinib (first compound 2.53 µM) stood at 0.691; with TGX 221 + Foretinib (first compound 8 µM), 0.925; with TGX 221 + Palbociclib (first compound 0.08 µM), 0.313; in the experiment with TGX 221 + Palbociclib (first compound 0.253 µM) it was 0.418; with TGX 221 + Palbociclib (first compound 0.8 µM) it was 0.358; with TGX 221 + Palbociclib (first compound 2.53 µM) it was 0.329. The relative viability with TGX 221 + Palbociclib (first compound 8 µM) worked out at 0.299.

NCI-H1650: the relative viability worked out at 0.489 in experiment [1] (first compound 0.08 µM); 0.346 in experiment [1] (first compound 0.253 µM); 0.358 in experiment [1] (first compound 0.8 µM); 0.311 in experiment [1] (first compound 2.53 µM); 0.716 in experiment [2] (first compound 0.08 µM); 1.03 in experiment [2] (first compound 0.253 µM). The relative viability in experiment [2] (first compound 0.8 µM) was found to be 0.742; in experiment [2] (first compound 2.53 µM), 0.759; in experiment [2] (first compound 8 µM), 0.645; in the experiment with TGX 221 + Foretinib (first compound 0.08 µM) it was 0.953; in the experiment with TGX 221 + Foretinib (first compound 0.253 µM) it was 0.751; in the experiment with TGX 221 + Foretinib (first compound 0.8 µM) it was 1.05. Also, the relative viability came out at 0.922 with TGX 221 + Foretinib (first compound 2.53 µM); 0.639 in the experiment with TGX 221 + Foretinib (first compound 8 µM); 0.305 in the experiment with TGX 221 + Palbociclib (first compound 0.08 µM); 0.298 with TGX 221 + Palbociclib (first compound 0.253 µM); 0.294 with TGX 221 + Palbociclib (first compound 0.8 µM); 0.257 with TGX 221 + Palbociclib (first compound 2.53 µM). Besides, in the experiment with TGX 221 + Palbociclib (first compound 8 µM), the relative viability is 0.191.

Consider HARA, for which the relative viability in experiment [1] (first compound 0.08 µM) turned out to be 0.335; in experiment [1] (first compound 0.253 µM) it was 0.408; in experiment [1] (first compound 0.8 µM), 0.464; in experiment [1] (first compound 2.53 µM), 0.405; in experiment [2] (first compound 0.08 µM), 0.687; in experiment [2] (first compound 0.253 µM), 1.55. The relative viability in experiment [2] (first compound 0.8 µM) stood at 0.727; in experiment [2] (first compound 2.53 µM), 1.1; in experiment [2] (first compound 8 µM), 0.762; in the experiment with TGX 221 + Foretinib (first compound 0.08 µM), 0.703; with TGX 221 + Foretinib (first compound 0.253 µM), 0.71; with TGX 221 + Foretinib (first compound 0.8 µM), 0.904. Also, the relative viability with TGX 221 + Foretinib (first compound 2.53 µM) amounted to 0.849; with TGX 221 + Foretinib (first compound 8 µM), 0.667; with TGX 221 + Palbociclib (first compound 0.08 µM), 0.264; with TGX 221 + Palbociclib (first compound 0.253 µM), 0.28; in the experiment with TGX 221 + Palbociclib (first compound 0.8 µM) it was 0.268; with TGX 221 + Palbociclib (first compound 2.53 µM) it was 0.232. Besides, the relative viability with TGX 221 + Palbociclib (first compound 8 µM) came to 0.246.

As to ChaGo-K-1, the relative viability in experiment [1] (first compound 0.08 µM) is 0.58; in experiment [1] (first compound 0.253 µM) it was 0.495; in experiment [1] (first compound 0.8 µM), 0.51; in experiment [1] (first compound 2.53 µM) it was 0.509; in experiment [2] (first compound 0.08 µM), 0.388; in experiment [2] (first compound 0.253 µM) it was 0.443. The relative viability in experiment [2] (first compound 0.8 µM) was found to be 0.396; in experiment [2] (first compound 2.53 µM), 0.439; in experiment [2] (first compound 8 µM), 0.45; in the experiment with TGX 221 + Foretinib (first compound 0.08 µM) it was 0.989; with TGX 221 + Foretinib (first compound 0.253 µM) it was 0.871; with TGX 221 + Foretinib (first compound 0.8 µM) it was 0.926. The relative viability was 0.827 with TGX 221 + Foretinib (first compound 2.53 µM); 0.876 in the experiment with TGX 221 + Foretinib (first compound 8 µM); 0.853 with TGX 221 + Palbociclib (first compound 0.08 µM); 0.835 in the experiment with TGX 221 + Palbociclib (first compound 0.253 µM); 0.916 with TGX 221 + Palbociclib (first compound 0.8 µM); 0.921 with TGX 221 + Palbociclib (first compound 2.53 µM). The relative viability with TGX 221 + Palbociclib (first compound 8 µM) worked out at 0.935.
